A short description of the data set: logP determination by HPLC on a reversed-phase column (C 18), EEC Directive 79/831 Annex V.A8. It counts as physicochemical. Particulars: for chromatographic logP: reversed-phase HPLC column (C 18), HCO2H, HPLC reversed-phase column (C 18), 43° C., read-out: logP (HCO2H). Here is the method:
The stated logP values were determined in accordance with EEC Directive 79/831 Annex V.A8 by HPLC (high performance liquid chromatography) on a reversed-phase column (C 18). Temperature: 43° C.

Where [1] appears, read: method marker [a] (footnote not shown), isomer A / isomer B / isomer mixture as noted in the cell.
Setting [2] is: method marker [b], isomer A / isomer B / isomer mixture as noted in the cell.

In the case of `CCCC(=NOCCON=C(CCC)c1cccc(C)n1)c1cccc(C)n1` [compound 226], the logP under setting [1] was 5.18^[a].
As for `CC(=NOCCCCCCON=C(C)c1cc(C)cc(C)n1)c1cccc(C)n1` [Compound 460], the logP (value marked [b]) is 3.51^[b].
With `CC(=NOC(=O)NCCCCNC(=O)ON=C(C)c1cc(C)cc(C)n1)c1cc(C)cc(C)n1` [compound 852], the logP (value marked [a]) was 1.63^[a].
`CCC(=NOCCCON=C(CC)c1ncccc1C)c1ncccc1C` (single isomer, unassigned) [compound 95]: the logP under setting [1] was 3.11^[a] (isomer A).
In the case of `C=C(CON=C(C)c1cccc(C)n1)CON=C(CC)c1ncccc1C` (single isomer, unassigned) [compound 142], the logP under setting [2] was 3.84^[b] (isomer )B.
As for `C=C(CON=C(C)c1ccc2ccccc2n1)CON=C(C)c1ccc2ccccc2n1` [compound 63], the logP under setting [2] was 6.51^[b].
On the same count and under the same terms, for `C=C(CON=C(C)c1ncc(Cl)cc1Cl)CON=C(C)c1ncc(Cl)cc1Cl` [compound 153] the value was 5.75^[b]; for `C=C(CON=C(C)c1ccc(Br)nc1)CON=C(C)c1ccc(Br)nc1` [compound 151], 4.56^[b].
As for `CC(=NOc1ncnc(ON=C(C)c2cccc(C)n2)c1C)c1cccc(C)n1` [compound 728], the logP runs as follows: (method marked [b] in Table 1) 2.34^[b]; (method marked [c] in Table 1) 3.45^[c].
For the compound `C=C(CON=C(C)c1nc(C)ccc1C)CON=C(C)c1nc(C)ccc1C` (single isomer, unassigned) [compound 308], the logP (value marked [b]) is 1.84^[b] and the logP (value marked [c]) is 2.94^[c].
`CC(=NOCC1OC1CON=C(C)c1cccc(C)n1)c1cccc(C)n1` (racemic) [compound 286]: the logP (value marked [b]) is 2.08^[b].
In the case of `CC(=NOCC(C)(C)CON=C(C)c1ccc(C)c(C)n1)c1cccc(C)n1` [Compound 799], the logP reads like this: (value marked [a]) 4.96^[a]; (value marked [b]) 4.96^[b]; (value marked [c]) 6.34^[c].
With `CC(=NOCCCON=C(C)c1cc(C)ccn1)c1cc(C)ccn1` [compound 35], under setting [2], the logP was 1.94^[b].
Turning to `CCC(=NOCC1(CON=C(CC)c2cccc(C)n2)CC(c2ccc(Cl)cc2)=NO1)c1cccc(C)n1` (centres unmarked) [compound 612], under “method marked [b] in Table 1”, the logP was 5.84^[b].
The same measure, in the same setting: with `CC(=NOCCCCON=C(C)c1sc(C)nc1C)c1cccc(C)n1` (single isomer, unassigned) [compound 540] the figure was 3.56^[b] (isomer A).
In the case of `CC(=NOCC(C)(C)CON=C(C)c1ccc2c(n1)CCC2)c1ccc2c(n1)CCC2` [Compound 301], the logP (value marked [a]) was 4.78^[a].
Take `C=C(CON=C(C)c1cccc(C)n1)CON=C(c1cccc(C)n1)C(C)C` [Compound 359]: the logP (value marked [b]) is 4.72^[b] (isomer B).
As for `CC(=NOCC1(CON=C(C)c2ccc(C)c(C)n2)COC(=O)N1)c1ccc(C)c(C)n1` (centres unmarked) [compound 857], the logP reads like this: (value marked [b]) 1.96^[b]; (value marked [c]) 3.70^[c].
For `C/C(=N\OCC(C)(C)CCl)c1cccc(C)n1` [VI-1, (1E)-1-(6-methylpyridin-2-yl)ethanone O-(3-chloro-2,2-dimethylpropyl)oxime], the chromatographic logP worked out at 3.76.
In the case of `CC(=NOCC(C)CON=C(C)c1ccc(C)c(C)n1)c1ccc(C)c(C)n1` (centres unmarked) [Compound 118], the logP under setting [1] was 2.99^[a].
As for `C=C(CON=C(c1cccc(C)n1)C1CC1)CON=C(c1cccc(C)n1)C1CC1` (single isomer, unassigned) [Compound 311], the logP (value marked [a]) is 3.29^[a] (isomer B).
Regarding `C=CCCC(=NOCCCCCCON=C(C)c1cccc(C)n1)c1ncccc1C` (single isomer, unassigned) [compound 523], the logP (value marked [b]) is 4.91^[b] (isomer A).
For the compound `CC(=NOCC(O)CON=C(C)c1cc(C)cc(C)n1)c1cc(C)cc(C)n1` (centres unmarked) [compound 560], the logP reads like this: (method marked [b] in Table 1) 1.22[b]; (method marked [c] in Table 1) 3.68^[c].
For `C=C(CON=C(C)c1ccc(Br)nc1)CON=C(C)c1cccc(C)n1` [compound 208], the logP under setting [2] was 4.08^[b].
Still for that read-out and setting: for `C=C(CON=C(C)c1nc(C)cc(OC)n1)CON=C(C)c1nc(C)cc(OC)n1` [compound 64] the value was 3.17^[b].
Regarding `C/C(=N\OCC1(CON)CC1)c1cccc(C)n1` [XII-13], the logP ([a] acidic range, pH 2.3, 0.1% aqueous phosphoric acid and acetonitrile) was 0.78^[a]; the logP ([b] LC-MS, acidic range, pH 2.7, 0.1% aqueous formic acid and acetonitrile) is 0.78^[b]; the logP ([c] LC-MS, neutral range, pH 7.8, 0.001 molar aqueous ammonium bicarbonate solution and acetonitrile) is 2.11^[c].
For the compound `CCC(=NOCC(C)CON=C(CC)c1cccc(CC)n1)c1cccc(CC)n1` (mixture of isomers) [compound 263], where the note is “value marked [b]”, the logP is 6.33^[b].
For `CC(=NOCC1(CON=C(C)c2cc(Cl)cc(C)n2)CC1)c1cc(Cl)cc(C)n1` [compound 805], for the setting “value marked [a]”, the logP is 7.02^[a).
As for `CC(=NOCC(C)CON=C(C)c1cncc(C)c1)c1cncc(C)c1` (centres unmarked) [compound 166], under setting [1], the logP is listed as 1.78^a].
`N/C(=N\OCO/N=C(\N)c1nc(C2CC2)cc(C2CC2)n1)c1nc(C2CC2)cc(C2CC2)n1` [compound 42]: under setting [2], the logP is 2.92^[b].
Still for that read-out and setting: with `C=C(CO/N=C(\N)c1ncc(F)cc1F)CO/N=C(\N)c1ncc(F)cc1F` [compound 45] the figure was 2.42^[b]; with `CC(=NOCCCCCCON=C(C)c1cccc(C)n1)c1cccc(C)n1` [Compound 73], 4.47^[b].
With `CC(=NOC(C)CC(C)ON=C(C)c1ccc(C)c(C)n1)c1ccc(C)c(C)n1` (centres unmarked) [Compound 322], the logP was 3.4^[b] (value marked [b]) and 6.79^[c] (value marked [c]).
On to `C=C(CON=C(C)c1cccc(C)n1)CON=C(C)c1ncc(C(F)(F)F)cc1Cl` (single isomer, unassigned) [compound 157], for which the logP under setting [2] was 4.42^[b] (isomer A).
With `CC(=NOC[Si](C)(CON=C(C)c1ccc(C)c(C)n1)C(C)C)c1ccc(C)c(C)n1` [Compound 837], the logP runs as follows: (value marked [a]) 6.76^[a]; (value marked [b]) 6.76^[b]; (value marked [c]) 7.36^[c].
Turning to `CC(=NOCCCCON=C(C)c1cc(C)cc(C)n1)c1cccc(C)n1` [compound 447], the logP (value marked [b]) was 2.41^[b].
Turning to `CC(=NOCC(C)CON=C(C)c1cccc(Cl)n1)c1cccc(Cl)n1` (centres unmarked) [compound 568], the logP (method marked [a] in Table 1) was 6.08^[a].
For the compound `Cc1cc(C)nc(C(C#N)=NOCC(C)CON=C(C#N)c2cc(C)cc(C)n2)c1` (centres unmarked) [Compound 838], for the setting “value marked [a]”, the logP is 4.84^[a].
For `Cc1nc(/C(N)=N/OCc2ccccc2CO/N=C(\N)c2nc(C)c3c(n2)CCCC3)nc2c1CCCC2` [compound 707], the logP (method marked [b] in Table 1) was 3.25^[b].
Take `C=C(CON=C(N)c1cc(Cl)cc(Cl)c1)CON=C(C)c1cccc(C)n1` [compound 190]: the logP under setting [2] was 4.32^[b].
Regarding `CCC1=NOC(CON=C(CC)c2ccc(C)cn2)(CON=C(CC)c2cccc(C)n2)C1` (racemic) [compound 607], under “method marked [b] in Table 1”, the logP was 4.04^[b].
Regarding `CC(=NOCC(C)(C)CON=C(c1ncccc1C)C(C)C)c1cccc(C)n1` [compound 368], the logP (value marked [b]) was 4.56^[b].
Turning to `CC(=NOCCCCCCON=C(C)c1sc(C)nc1C)c1cccc(C)n1` (single isomer, unassigned) [compound 543], for the setting “method marked [b] in Table 1”, the logP was 4.74^[b] (isomer B).
For `C=C(CON=C(C)c1ccc(C(F)(F)F)cn1)CON=C(C)c1ccc(C(F)(F)F)cn1` [Compound 61], under setting [2], the logP is 6.18^[b].
Regarding `CC(=NOCC1(CON=C(C)c2cc(C)cc(C)n2)COC(=O)N1)c1cc(C)cc(C)n1` (centres unmarked) [compound 858], the logP was 1.43^[b] (value marked [b]) and 3,55^[c] (value marked [c]).
With `CCC1=NOC(CON=C(C)c2cccc(C)n2)(CON=C(C)c2cccc(C)n2)C1` (centres unmarked) [compound 594], the logP (method marked [a] in Table 1) was 2.68^[a].
Take `Cc1cccc(C=NOCc2ccc(CON=Cc3cccc(C)n3)cc2)n1` [compound 735]: the logP (method marked [b] in Table 1) was 2.80^[b].
Same read-out and setting: with `CC(=NOCC1(CON=C(C)c2cc(C)cc(C)n2)CC(CC(C)C)=NO1)c1cc(C)cc(C)n1` (centres unmarked) [compound 641] the figure was 2.66^[b].
Consider `CC(=NOCC1(CON=C(C)c2ccc(C)c(C)n2)CCC1)c1ccc(C)c(C)n1` [Compound 319], for which the logP was 4.07^b] (value marked [b]) and 7.05^[c] (value marked [c]).
As for `Cc1cccc(C=NOCCCON=Cc2cccc(C)n2)n1` [Compound 669], the logP (method marked [b] in Table 1) was 2.54^[b].
With `COCc1cccc(C(C)=NOCC(C)CON=C(C)c2cccc(COC)n2)n1` (centres unmarked) [Compound 290], under “value marked [b]”, the logP was 4.92^[b].
The same measure, in the same setting: with `CC(=NOCC1(CON=C(C)c2cccc(NCC3CC3)n2)CC1)c1cccc(NCC2CC2)n1` [compound 849] the figure was 1.93^[b].
For the compound `CC(=NOCC(C)(C)CON=C(C)c1ccc(C)c(C)n1)c1ccc(C)c(C)n1` [Compound 278], the logP (value marked [a]) is 3.81^[a].
For `CC(=NOCC(C)CON=C(C)c1ncccc1C)c1ncccc1C` (centres unmarked) [compound 128], the logP under setting [1] was 3.12^[a].
For the compound `CC(=NOCCCCCCON=C(C)c1ncccc1C)c1cccc(C)n1` [compound 464], the logP (value marked [b]) was 4.25^[b].
For `CCc1ccnc(C(C)=NOCCCON=C(C)c2cc(CC)ccn2)c1` [Compound 136], the logP under setting [1] is 2.98^[a].
As for `CC(=NOCC(C)CON=C(C)c1nc(C)c(C)s1)c1cccc(C)n1` (centres unmarked) [compound 434], the logP (value marked [b]) is 4.85^[b].
As for `Cc1cccc(C=NOCC(C)CON=Cc2cccc(C)n2)n1` (centres unmarked) [compound 668], the logP (method marked [b] in Table 1) is 2.28^[b].
In the case of `C=C(CON=C(C)c1cccc(C)n1)CON=C(N)c1nccc(C)n1` [compound 187], under setting [2], the logP is 1.73^[b].
Take `C/C(=N\OCC(C)CO/N=C(\C)c1cccc(C)n1)c1cccc(C)n1` [1-(6-methylpyridin-2-yl)ethanone O,O′-(2-methylpropane-1,3-diyl)oxime]: the chromatographic logP came out at 2.31.
Regarding `C=C(CON=C(C)c1cncc(C)c1)CON=C(C)c1cccc(C)n1` [compound 361], for the setting “value marked [b]”, the logP was 2.20^[b].

For the origin of these results see patent US20100022559A1, “BISOXIMES AS FUNGICIDES” (BAYER CROPSCIENCE AG, priority 2006, published 2010).
